Measured values: ChEMBL document CHEMBL1949544, “Proteasome inhibitors from Neoboutonia melleri” (J Nat Prod, 2012)

System: DLD-1
Assay: Inhibition of proteasome activity in human DLD1 cells expressing 4-ubiquitin luciferase reporter protein assessed increase of luciferase signal at 10 uM after 7 hrs relative to control

| SMILES | fold change (FC) |
| --- | --- |
| CC(C)=CC(=O)C[C@@H](C)[C@H]1CC[C@@]2(C)[C@@H]3CC[C@H]4[C@](C)(C(=O)O[C@@H]5O[C@@H](C)[C@H](O)[C@@H](O)[C@H]5O)[C@@H](O)CC[C@@]45C[C@@]35CC[C@]12C | 1.1 |
| C=C(C(=O)C1(O)O[C@H]2C[C@@]3(C)[C@@H]4CC[C@H]5[C@H](C)C(=O)C=C[C@@]56C[C@@]46CC[C@]3(C)[C@H]2[C@@H]1C)[C@@H](C)CO (stereo partly drawn) | 2.6 |
| C=C(C(=O)C[C@@H](C)[C@H]1CC[C@@]2(C)[C@@H]3CC[C@H]4[C@](C)(C(=O)O[C@@H]5O[C@@H](C)[C@H](O)[C@@H](O)[C@H]5O)[C@@H](O)CC[C@@]45C[C@@]35CC[C@]12C)C(C)C | 1.1 |
| C=C(C(=O)C[C@@H](C)[C@H]1[C@@H](OC(C)=O)C[C@@]2(C)[C@@H]3CC[C@H]4[C@](C)(C(=O)O)[C@@H](O)CC[C@@]45C[C@@]35CC[C@]12C)C(C)CO (stereo partly drawn) | 2.8 |
| C=C(C(=O)[C@H](O)[C@@H](C)[C@H]1[C@@H](OC(C)=O)C[C@@]2(C)[C@@H]3CC[C@H]4[C@](C)(C(=O)O)[C@@H](O)CC[C@@]45C[C@@]35CC[C@]12C)C(C)C | 1.8 |

Second part, the compound after the results:

| fold change (FC) | SMILES |
| --- | --- |
| 19 | C=C(C(=O)[C@H](OC(C)=O)[C@@H](C)[C@H]1[C@@H](OC(C)=O)C[C@@]2(C)[C@@H]3CC[C@H]4[C@H](C)C(=O)C=C[C@@]45C[C@@]35CC[C@]12C)C(C)C |
| 3 | CC(=O)O[C@H]1C[C@@]2(C)[C@@H]3CC[C@H]4[C@H](C)C(=O)C=C[C@@]45C[C@@]35CC[C@]2(C)[C@H]1[C@H](C)C=O |
| 24 | C=C(C(=O)[C@H](OC(C)=O)[C@@H](C)[C@H]1[C@@H](OC(C)=O)C[C@@]2(C)[C@@H]3CC[C@H]4[C@H](C)C(=O)C=C[C@]45C[C@]35CC[C@]12C)[C@@H](C)CO |
| 20 | C=C(C(=O)[C@H](O)[C@@H](C)[C@H]1[C@@H](OC(C)=O)C[C@@]2(C)[C@@H]3CC[C@H]4[C@H](C)C(=O)C=C[C@@]45C[C@@]35CC[C@]12C)C(C)C |
| 74 | C=C(C(=O)[C@H](O)[C@@H](C)[C@H]1[C@@H](OC(C)=O)C[C@@]2(C)[C@@H]3CC[C@H]4[C@H](C)C(=O)C[C@H](O)[C@@]45C[C@@]35CC[C@]12C)[C@@H](C)CO |
| 60 | C=C(C(=O)[C@H](OC(C)=O)[C@@H](C)[C@H]1[C@@H](OC(C)=O)C[C@@]2(C)[C@@H]3CC[C@H]4[C@H](C)C(=O)C=C[C@@]45C[C@@]35CC[C@]12C)[C@H](C)CO |
| 1.1 | C=C(C(=O)[C@H](OC(C)=O)[C@@H](C)[C@H]1[C@@H](OC(C)=O)C[C@@]2(C)[C@@H]3CC[C@H]4[C@H](C)C(=O)C=C[C@@]45C[C@@]35CC[C@]12CO)[C@@H](C)CO |
| 4.4 | C=C(C(=O)[C@H](OC(C)=O)[C@@H](C)[C@H]1[C@@H](OC(C)=O)C[C@@]2(C)[C@@H]3CC[C@H]4[C@H](C)C(=O)C=C[C@@]45C[C@@]35CC[C@]12C)[C@@H](C)CO |

System: DLD-1
Assay: Inhibition of proteasome activity in human DLD1 cells expressing 4-ubiquitin luciferase reporter protein assessed increase of luciferase signal at 5 uM after 7 hrs relative to control

| SMILES | fold change (FC) |
| --- | --- |
| CC(C)=CC(=O)C[C@@H](C)[C@H]1CC[C@@]2(C)[C@@H]3CC[C@H]4[C@](C)(C(=O)O[C@@H]5O[C@@H](C)[C@H](O)[C@@H](O)[C@H]5O)[C@@H](O)CC[C@@]45C[C@@]35CC[C@]12C | 1 |
| C=C(C(=O)C1(O)O[C@H]2C[C@@]3(C)[C@@H]4CC[C@H]5[C@H](C)C(=O)C=C[C@@]56C[C@@]46CC[C@]3(C)[C@H]2[C@@H]1C)[C@@H](C)CO (stereo partly drawn) | 1 |
| C=C(C(=O)C[C@@H](C)[C@H]1CC[C@@]2(C)[C@@H]3CC[C@H]4[C@](C)(C(=O)O[C@@H]5O[C@@H](C)[C@H](O)[C@@H](O)[C@H]5O)[C@@H](O)CC[C@@]45C[C@@]35CC[C@]12C)C(C)C | 1 |
| C=C(C(=O)C[C@@H](C)[C@H]1[C@@H](OC(C)=O)C[C@@]2(C)[C@@H]3CC[C@H]4[C@](C)(C(=O)O)[C@@H](O)CC[C@@]45C[C@@]35CC[C@]12C)C(C)CO (stereo partly drawn) | 1.3 |
| C=C(C(=O)[C@H](O)[C@@H](C)[C@H]1[C@@H](OC(C)=O)C[C@@]2(C)[C@@H]3CC[C@H]4[C@](C)(C(=O)O)[C@@H](O)CC[C@@]45C[C@@]35CC[C@]12C)C(C)C | 1.3 |

Second part, the compound after the results:

| fold change (FC) | SMILES |
| --- | --- |
| 74 | C=C(C(=O)[C@H](OC(C)=O)[C@@H](C)[C@H]1[C@@H](OC(C)=O)C[C@@]2(C)[C@@H]3CC[C@H]4[C@H](C)C(=O)C=C[C@@]45C[C@@]35CC[C@]12C)C(C)C |
| 1.3 | CC(=O)O[C@H]1C[C@@]2(C)[C@@H]3CC[C@H]4[C@H](C)C(=O)C=C[C@@]45C[C@@]35CC[C@]2(C)[C@H]1[C@H](C)C=O |
| 84 | C=C(C(=O)[C@H](OC(C)=O)[C@@H](C)[C@H]1[C@@H](OC(C)=O)C[C@@]2(C)[C@@H]3CC[C@H]4[C@H](C)C(=O)C=C[C@]45C[C@]35CC[C@]12C)[C@@H](C)CO |
| 65 | C=C(C(=O)[C@H](O)[C@@H](C)[C@H]1[C@@H](OC(C)=O)C[C@@]2(C)[C@@H]3CC[C@H]4[C@H](C)C(=O)C=C[C@@]45C[C@@]35CC[C@]12C)C(C)C |
| 11 | C=C(C(=O)[C@H](O)[C@@H](C)[C@H]1[C@@H](OC(C)=O)C[C@@]2(C)[C@@H]3CC[C@H]4[C@H](C)C(=O)C[C@H](O)[C@@]45C[C@@]35CC[C@]12C)[C@@H](C)CO |
| 71 | C=C(C(=O)[C@H](OC(C)=O)[C@@H](C)[C@H]1[C@@H](OC(C)=O)C[C@@]2(C)[C@@H]3CC[C@H]4[C@H](C)C(=O)C=C[C@@]45C[C@@]35CC[C@]12C)[C@H](C)CO |
| 12 | C=C(C(=O)[C@H](OC(C)=O)[C@@H](C)[C@H]1[C@@H](OC(C)=O)C[C@@]2(C)[C@@H]3CC[C@H]4[C@H](C)C(=O)C=C[C@@]45C[C@@]35CC[C@]12CO)[C@@H](C)CO |
| 37 | C=C(C(=O)[C@H](OC(C)=O)[C@@H](C)[C@H]1[C@@H](OC(C)=O)C[C@@]2(C)[C@@H]3CC[C@H]4[C@H](C)C(=O)C=C[C@@]45C[C@@]35CC[C@]12C)[C@@H](C)CO |

System: DLD-1
Assay: Inhibition of proteasome activity in human DLD1 cells expressing 4-ubiquitin luciferase reporter protein assessed increase of luciferase signal at 1 uM after 7 hrs relative to control

| SMILES | fold change (FC) |
| --- | --- |
| CC(C)=CC(=O)C[C@@H](C)[C@H]1CC[C@@]2(C)[C@@H]3CC[C@H]4[C@](C)(C(=O)O[C@@H]5O[C@@H](C)[C@H](O)[C@@H](O)[C@H]5O)[C@@H](O)CC[C@@]45C[C@@]35CC[C@]12C | 1 |
| C=C(C(=O)C1(O)O[C@H]2C[C@@]3(C)[C@@H]4CC[C@H]5[C@H](C)C(=O)C=C[C@@]56C[C@@]46CC[C@]3(C)[C@H]2[C@@H]1C)[C@@H](C)CO (stereo partly drawn) | 0.9 |
| C=C(C(=O)C[C@@H](C)[C@H]1CC[C@@]2(C)[C@@H]3CC[C@H]4[C@](C)(C(=O)O[C@@H]5O[C@@H](C)[C@H](O)[C@@H](O)[C@H]5O)[C@@H](O)CC[C@@]45C[C@@]35CC[C@]12C)C(C)C | 1.1 |
| C=C(C(=O)C[C@@H](C)[C@H]1[C@@H](OC(C)=O)C[C@@]2(C)[C@@H]3CC[C@H]4[C@](C)(C(=O)O)[C@@H](O)CC[C@@]45C[C@@]35CC[C@]12C)C(C)CO (stereo partly drawn) | 1 |
| C=C(C(=O)[C@H](O)[C@@H](C)[C@H]1[C@@H](OC(C)=O)C[C@@]2(C)[C@@H]3CC[C@H]4[C@](C)(C(=O)O)[C@@H](O)CC[C@@]45C[C@@]35CC[C@]12C)C(C)C | 1.2 |

Second part, the compound after the results:

| fold change (FC) | SMILES |
| --- | --- |
| 7.2 | C=C(C(=O)[C@H](OC(C)=O)[C@@H](C)[C@H]1[C@@H](OC(C)=O)C[C@@]2(C)[C@@H]3CC[C@H]4[C@H](C)C(=O)C=C[C@@]45C[C@@]35CC[C@]12C)C(C)C |
| 1.1 | CC(=O)O[C@H]1C[C@@]2(C)[C@@H]3CC[C@H]4[C@H](C)C(=O)C=C[C@@]45C[C@@]35CC[C@]2(C)[C@H]1[C@H](C)C=O |
| 2 | C=C(C(=O)[C@H](OC(C)=O)[C@@H](C)[C@H]1[C@@H](OC(C)=O)C[C@@]2(C)[C@@H]3CC[C@H]4[C@H](C)C(=O)C=C[C@]45C[C@]35CC[C@]12C)[C@@H](C)CO |
| 2.4 | C=C(C(=O)[C@H](O)[C@@H](C)[C@H]1[C@@H](OC(C)=O)C[C@@]2(C)[C@@H]3CC[C@H]4[C@H](C)C(=O)C=C[C@@]45C[C@@]35CC[C@]12C)C(C)C |
| 1.6 | C=C(C(=O)[C@H](O)[C@@H](C)[C@H]1[C@@H](OC(C)=O)C[C@@]2(C)[C@@H]3CC[C@H]4[C@H](C)C(=O)C[C@H](O)[C@@]45C[C@@]35CC[C@]12C)[C@@H](C)CO |
| 1.5 | C=C(C(=O)[C@H](OC(C)=O)[C@@H](C)[C@H]1[C@@H](OC(C)=O)C[C@@]2(C)[C@@H]3CC[C@H]4[C@H](C)C(=O)C=C[C@@]45C[C@@]35CC[C@]12C)[C@H](C)CO |
| 1.2 | C=C(C(=O)[C@H](OC(C)=O)[C@@H](C)[C@H]1[C@@H](OC(C)=O)C[C@@]2(C)[C@@H]3CC[C@H]4[C@H](C)C(=O)C=C[C@@]45C[C@@]35CC[C@]12CO)[C@@H](C)CO |
| 48 | C=C(C(=O)[C@H](OC(C)=O)[C@@H](C)[C@H]1[C@@H](OC(C)=O)C[C@@]2(C)[C@@H]3CC[C@H]4[C@H](C)C(=O)C=C[C@@]45C[C@@]35CC[C@]12C)[C@@H](C)CO |

System: DLD-1
Assay: Inhibition of proteasome activity in human DLD1 cells expressing 4-ubiquitin luciferase reporter protein assessed increase of luciferase signal at 0.5 uM after 7 hrs relative to control

| fold change (FC) | SMILES |
| --- | --- |
| 1.4 | C=C(C(=O)[C@H](OC(C)=O)[C@@H](C)[C@H]1[C@@H](OC(C)=O)C[C@@]2(C)[C@@H]3CC[C@H]4[C@H](C)C(=O)C=C[C@]45C[C@]35CC[C@]12C)[C@@H](C)CO |
| 1.3 | C=C(C(=O)[C@H](O)[C@@H](C)[C@H]1[C@@H](OC(C)=O)C[C@@]2(C)[C@@H]3CC[C@H]4[C@H](C)C(=O)C[C@H](O)[C@@]45C[C@@]35CC[C@]12C)[C@@H](C)CO |
| 1 | C=C(C(=O)[C@H](OC(C)=O)[C@@H](C)[C@H]1[C@@H](OC(C)=O)C[C@@]2(C)[C@@H]3CC[C@H]4[C@H](C)C(=O)C=C[C@@]45C[C@@]35CC[C@]12C)[C@H](C)CO |
| 2.1 | C=C(C(=O)[C@H](OC(C)=O)[C@@H](C)[C@H]1[C@@H](OC(C)=O)C[C@@]2(C)[C@@H]3CC[C@H]4[C@H](C)C(=O)C=C[C@@]45C[C@@]35CC[C@]12C)[C@@H](C)CO |
